In PMC4632759, “Studies on [5,6]-Fused Bicyclic Scaffolds Derivatives as Potent Dual B-Raf^V600E/KDR Inhibitors Using Docking and 3D-QSAR Approaches” (International Journal of Molecular Sciences, 2015):
Like-named read-outs stand apart in the source and are kept apart here.

How the values were obtained:
C-Raf = tested on: C-Raf; design: method as in PMID 22376051, PMID 22763369, PMID 22883026, PMID 23906342; settings: cited from earlier work
wild-type B-Raf = tested on: wild-type B-Raf; design: method as in PMID 22376051, PMID 22763369, PMID 22883026, PMID 23906342; settings: cited from earlier work
B-Raf^V600E [1] = biological target: T1, B-Raf^V600E (Homo sapiens, UniProt P15056, V600E); design: method as in PMID 22376051, PMID 22763369, PMID 22883026, PMID 23906342; settings: literature values used as 3D-QSAR data set; read-out: Kinase IC50 B-Raf^V600E; cited from earlier work
T1 sequence (P15056 whole entry V600E): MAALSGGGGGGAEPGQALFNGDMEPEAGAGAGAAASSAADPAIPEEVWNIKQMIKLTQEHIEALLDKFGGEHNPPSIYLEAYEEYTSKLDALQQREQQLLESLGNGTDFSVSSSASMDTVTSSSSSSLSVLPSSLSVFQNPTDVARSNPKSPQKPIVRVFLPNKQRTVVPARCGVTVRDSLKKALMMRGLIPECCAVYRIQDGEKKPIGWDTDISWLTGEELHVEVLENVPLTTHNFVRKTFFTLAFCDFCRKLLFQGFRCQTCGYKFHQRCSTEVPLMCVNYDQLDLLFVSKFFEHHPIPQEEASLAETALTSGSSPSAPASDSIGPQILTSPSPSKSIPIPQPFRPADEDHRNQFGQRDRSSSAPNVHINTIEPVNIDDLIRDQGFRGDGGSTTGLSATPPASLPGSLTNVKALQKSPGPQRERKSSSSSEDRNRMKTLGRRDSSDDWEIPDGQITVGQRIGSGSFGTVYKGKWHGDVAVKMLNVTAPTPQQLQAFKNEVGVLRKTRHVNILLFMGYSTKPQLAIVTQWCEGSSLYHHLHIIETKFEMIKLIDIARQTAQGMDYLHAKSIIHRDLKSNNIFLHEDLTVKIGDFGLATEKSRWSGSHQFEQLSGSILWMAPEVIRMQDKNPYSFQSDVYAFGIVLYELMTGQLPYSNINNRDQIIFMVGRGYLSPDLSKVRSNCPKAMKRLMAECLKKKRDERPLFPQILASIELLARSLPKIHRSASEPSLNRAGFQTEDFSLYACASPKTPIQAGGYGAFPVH

VEGFR2 = VEGFR2 (Homo sapiens, UniProt P35968); design: method as in PMID 22376051, PMID 22763369, PMID 22883026, PMID 23906342; settings: literature values used as 3D-QSAR data set; read-out: Kinase IC50 VEGFR2; cited from earlier work
VEGFR2, sequence (P35968 806-1171): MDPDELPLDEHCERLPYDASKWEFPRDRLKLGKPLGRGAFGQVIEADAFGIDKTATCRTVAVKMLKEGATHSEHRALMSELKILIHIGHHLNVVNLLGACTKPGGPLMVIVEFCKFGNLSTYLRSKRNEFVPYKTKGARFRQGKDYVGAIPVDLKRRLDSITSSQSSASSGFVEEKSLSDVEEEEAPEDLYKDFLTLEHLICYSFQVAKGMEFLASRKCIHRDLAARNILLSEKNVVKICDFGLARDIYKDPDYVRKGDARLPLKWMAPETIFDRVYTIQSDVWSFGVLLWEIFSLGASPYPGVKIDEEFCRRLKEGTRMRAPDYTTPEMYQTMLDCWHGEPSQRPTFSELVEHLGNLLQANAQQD

B-Raf^V600E [2] = biological target: T1, B-Raf^V600E; assay: B-Raf^V600E inhibitory activity of designed new compounds (preliminary pharmacological evaluation); type: biochemical; settings: for IC50: preliminary biological tests
Source text: (§1) The designed molecules were synthesized and the preliminary pharmacological evaluation would be used to verify the biological activity and our design strategy.

KDR = KDR (Homo sapiens, UniProt P35968); assay: KDR inhibitory activity of designed new compounds (preliminary pharmacological evaluation); type: biochemical; settings: for IC50: preliminary biological tests
KDR, sequence (P35968 20-1356): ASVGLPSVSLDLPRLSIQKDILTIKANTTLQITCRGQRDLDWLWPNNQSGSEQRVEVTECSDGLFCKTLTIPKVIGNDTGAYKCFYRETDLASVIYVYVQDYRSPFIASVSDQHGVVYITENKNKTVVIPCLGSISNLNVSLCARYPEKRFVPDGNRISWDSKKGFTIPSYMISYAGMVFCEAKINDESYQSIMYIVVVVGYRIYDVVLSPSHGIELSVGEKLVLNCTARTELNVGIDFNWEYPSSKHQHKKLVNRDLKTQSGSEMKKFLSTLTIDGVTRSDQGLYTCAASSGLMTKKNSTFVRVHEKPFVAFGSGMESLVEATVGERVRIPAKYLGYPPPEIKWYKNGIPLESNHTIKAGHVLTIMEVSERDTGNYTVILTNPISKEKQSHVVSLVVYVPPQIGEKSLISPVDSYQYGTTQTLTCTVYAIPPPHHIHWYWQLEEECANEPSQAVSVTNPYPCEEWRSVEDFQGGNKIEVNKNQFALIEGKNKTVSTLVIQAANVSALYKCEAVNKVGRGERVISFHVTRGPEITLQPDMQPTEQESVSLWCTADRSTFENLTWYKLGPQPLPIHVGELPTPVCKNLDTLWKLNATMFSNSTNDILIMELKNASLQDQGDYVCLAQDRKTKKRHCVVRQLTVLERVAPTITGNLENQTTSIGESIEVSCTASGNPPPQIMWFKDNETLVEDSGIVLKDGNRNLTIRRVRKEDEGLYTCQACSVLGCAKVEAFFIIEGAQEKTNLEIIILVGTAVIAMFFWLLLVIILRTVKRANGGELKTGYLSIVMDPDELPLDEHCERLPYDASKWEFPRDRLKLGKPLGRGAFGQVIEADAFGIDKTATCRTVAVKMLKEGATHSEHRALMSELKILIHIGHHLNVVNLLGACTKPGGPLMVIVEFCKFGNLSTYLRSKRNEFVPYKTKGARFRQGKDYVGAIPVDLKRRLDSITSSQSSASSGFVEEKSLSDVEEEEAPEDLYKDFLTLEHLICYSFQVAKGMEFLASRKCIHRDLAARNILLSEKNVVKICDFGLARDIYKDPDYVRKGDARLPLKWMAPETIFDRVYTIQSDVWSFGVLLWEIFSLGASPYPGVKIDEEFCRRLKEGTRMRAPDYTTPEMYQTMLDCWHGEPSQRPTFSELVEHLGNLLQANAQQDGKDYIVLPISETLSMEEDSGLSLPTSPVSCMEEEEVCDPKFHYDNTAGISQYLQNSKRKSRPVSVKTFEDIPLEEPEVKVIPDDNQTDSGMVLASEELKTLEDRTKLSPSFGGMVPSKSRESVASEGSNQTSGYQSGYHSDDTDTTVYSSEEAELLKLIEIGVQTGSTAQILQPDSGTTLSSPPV
Source text: as §1

Actual pIC50 B-Raf (B-Raf^V600E [2]) | IC50 (B-Raf^V600E [2]) [nM] | Actual pIC50 KDR (KDR) | IC50 (KDR) [nM] | Compound | IC50 (C-Raf) [nM] | IC50 (wild-type B-Raf) [nM] | IC50 (B-Raf^V600E [1]) [nM] | IC50 (VEGFR2) [nM]
 | > 5000 | 6.05 | 890 | CNC(=O)c1nc2ccc(C(=O)c3cccc(NC(=O)c4cccc(F)c4)c3)cc2[nH]1 [Compound D4] |  |  |  | 
 | > 5000 | 6.41 | 390 | CCNC(=O)c1nc2ccc(C(=O)c3cccc(NC(=O)c4cccc(C(F)(F)F)c4)c3)cc2[nH]1 [Compound D6] |  |  |  | 
6.82 | 150 |  | > 5000 | CNC(=O)c1nc2ccc(C(=O)c3cccc(NC(=O)c4ccc(Cl)c(Cl)c4)c3)cc2[nH]1 [Compound D5] |  |  |  | 

The next lines start with the molecule.

Compound | Actual pIC50 B-Raf (B-Raf^V600E [2]) | IC50 (B-Raf^V600E [2]) [nM] | Actual pIC50 KDR (KDR) | IC50 (KDR) [nM] | IC50 (C-Raf) [nM] | IC50 (wild-type B-Raf) [nM] | IC50 (B-Raf^V600E [1]) [nM] | IC50 (VEGFR2) [nM]
N#CC1(c2cccc(C(=O)Nc3cc(Oc4ccc5nc(NC(=O)C6CC6)sc5n4)ccc3F)c2Cl)CC1 [Compound 0JA] |  |  |  |  | 1.5 | 12 | 7 | 2.2
CNC(=O)c1nc2ccc(C(=O)c3cccc(NC(=O)c4cccc(Cl)c4)c3)cc2[nH]1 [Compound D2] | 6.38 | 420 | 6.68 | 210 |  |  |  | 
CNC(=O)c1nc2ccc(C(=O)c3cccc(NC(=O)c4ccc(Cl)cc4)c3)cc2[nH]1 [Compound D3] |  | > 5000 | 6.02 | 950 |  |  |  | 
